This passage reports IC50 and GI50 results from patent US20250129095A1, “ANNULATED 2-AMINO-3-CYANO THIOPHENES AND DERIVATIVES FOR THE TREATMENT OF CANCER” (Boehringer Ingelheim Int'l GmbH Corp., priority 2021, published 2025).

For one assay, the system named is LOVO cells. Kind of assay: LOVO CTG proliferation assay (120 h) (CRC, G13D). It counts as cell-based. Conditions: Homo sapiens. How it is done: LOVO cells (ATCC CCL-229) are dispensed into 384-well plates, flat and clear bottom (Greiner, PNr. 781091) at a density of 1000 cells per well in 60 μL DMEM (Sigma D6429)+10% Fetal Calf Serum (HyClone, PNr.: SH30084.03) and incubated at 37° C. in a CO2 incubator overnight. The next day, compounds (10 mM stock in DMSO) are added with the ECHO acoustic liquid handler system (Beckman Coulter), including DMSO controls. Plates are incubated for 120 h, and cell viability is measured using CellTiter-Glo luminescent cell viability reagent (Promega product code G7570). Viability (stated as percent of control) is defined as relative luminescence units RLU of each well divided by the RLU of cells in DMS0 controls. IC50 values are determined from viability measurements by non-linear regression using a four-parameter model.

Another assay addresses T1, KRAS (G12C)::SOS1 (Homo sapiens, UniProt P01116, C118S/C51S/C80L/G12C).
T1 construct: KRAS (G12C) 1-169, N-terminal 6His-tag for purification, cleaved off; 6His-tag (N, cleaved yes); made in house
The experiment in a line: KRAS::SOS1 AlphaScreen binding assay, KRAS G12C. Conditions: read-out: KRASG12C IC50. The source says:
This assay can be used to examine the potency with which compounds according to the invention binding to (mutated) KRAS inhibit the protein-protein interaction between SOS1 and (mutated) KRAS e.g., KRAS WT, KRAS G12C, KRAS G12D, KRAS G12V, KRAS G13D. […] Low IC50 values in this assay setting are indicative of strong inhibition of protein-protein interaction between SOS1 and KRAS:
These assays measure the inhibitory effect of compounds on KRAS mutant protein-protein interactions using the Alpha Screen technology by Perkin Elmer
The following (mutant) enzyme forms of KRAS and interacting proteins are used in these assays at the given concentrations: • KRAS (G12D) 1-169, N-terminal 6His-tag, C-terminal avi-tag (Xtal BioStructures, Inc.); final assay concentration 10 nM and SOS1 564-1049, N-terminal 229 GST-tag, TEV cleavage site (Viva Biotech Ltd); final assay concentration 5 nM; • KRAS (G12C) 1-169, N-terminal 6His-tag for purification, cleaved off, C-terminal avi-tag, biotinylated, mutations: C51S, C80L, C118S (in house); final assay concentration 7.5 nM and SOS1 564-1049, N-terminal 229 GST-tag, TEV cleavage site (Viva Biotech Ltd); final assay concentration 5 nM; • KRAS (G12V) 1-169, N-terminal 6His-tag for purification, cleaved off, C-terminal avi-tag, biotinylated, TEV cleavage site, mutation: C118S, GDP loaded (in house); final assay concentration 10 nM and SOS1 564-1049, N-terminal 229 GST-tag, TEV cleavage site (Viva Biotech Ltd); final assay concentration 10 nM; • KRAS (G13D) 1-169, N-terminal 6His-tag for purification, cleaved off, C-terminal avi-tag, biotinylated, TEV cleavage site, mutation: C118S, GDP loaded (in house); final assay concentration 10 nM and SOS1 564-1049, N-terminal 229 GST-tag, TEV cleavage site (Viva Biotech Ltd); final assay concentration 10 nM; • KRAS (WT) 1-169, N-terminal 6His-tag for purification, cleaved off, C-terminal avi-tag, biotinylated, TEV cleavage site, mutation: C118S, GDP loaded (in house); final assay concentration 10 nM and SOS1 564-1049, N-terminal 229 GST-tag, TEV cleavage site (Viva Biotech Ltd); final assay concentration 10 nM.
Test compounds dissolved in DMSO are dispensed onto assay plates (Proxiplate 384 PLUS, white, PerkinElmer; 6008289) using an Access Labcyte Workstation with the Labcyte Echo 55×. For the chosen highest assay concentration of 100 μM, 150 nL of compound solution are transferred from a 10 mM DMSO compound stock solution. A series of eleven fivefold dilutions per compound are transferred to the assay plate, compound dilutions are tested in duplicates. DMSO are added as backfill to a total volume of 150 nL.
The assays run on a fully automated robotic system in a darkened room below 100 Lux. To 150 nl of compound dilution 10 μl of a mix including KRAS mutant protein, SOS1 (final assay concentrations see above) and GDP nucleotide (Sigma G7127; final assay concentration 10 μM) in assay buffer (1×PBS, 0.1% BSA, 0.05% Tween 20) are added into columns 1-24.
After 30 minutes incubation time 5 μl of Alpha Screen bead mix in assay buffer are added into columns 1-23. Bead mix consists of AlphaLISA Glutathione Acceptor Beads (PerkinElmer, Cat No AL109) and AlphaScreen Streptavidin Donor Beads (PerkinElmer Cat No 6760002) in assay buffer at a final assay concentration of 10 μg/ml each.
Plates are kept at room temperature in a darkened incubator. After an additional 60 minutes incubation time the signal is measured in a PerkinElmer Envision HTS Multilabel Reader using the AlphaScreen specs from PerkinElmer.
Each plate contains up to 16 wells of a negative control depending on the dilution procedure (platewise or serial) (DMSO instead of test compound; with KRAS mutant::SOS1 GDP mix and bead mix; column 23) and 16wells of a positive control (DMSO instead of test compound; with KRAS mutant::SOS1 GDP mix w/o bead mix; column 24).
As internal control known inhibitors of KRAS mutant::SOS1 interaction can be measured on each compound plate. […]

The target of a further assay is KRAS G12V Ba/F3 (Homo sapiens, UniProt P01116, G12V, cells depend on it). The experiment in a line: Ba/F3 proliferation assay, KRAS G12V. It counts as cell-based. Conditions: 72 h, AlamarBlue, read-out: KRAS G12V Ba/F3 IC50. As to the method:
Plasmids containing KRASG12 mutants(i.e. G12D, G12C, G12V) are obtained from GeneScript. To generate KRASG12-dependent Ba/F3 models, Ba/F3 cells are transduced with retroviruses containing vectors that harbor KRASG12 isoforms. Platinum-E cells (Cell Biolabs) are used for retrovirus packaging. Retrovirus is added to Ba/F3 cells. To ensure infection, 4 μg/mL polybrene is added and cells are spinfected. […] Cells with an infection efficiency of 10% to 20% are further cultivated and puromycin selection with 1 μg/mL is initiated. As a control, parental Ba/F3 cells are used to show selection status. Selection is considered successful when parental Ba/F3 cells cultures died. To evaluate the transforming potential of KRASG12 mutations, the growth medium is no longer supplemented with IL-3. Ba/F3 cells harboring the empty vector are used as a control. Approximately ten days before conducting the experiments, puromycin is left out.
Compounds are added using an Access Labcyte Workstation with a Labcyte Echo 550 or 555 accoustic dispenser. All treatments are performed in technical duplicates. […] AlamarBlue™ (ThermoFisher), a viability stain, is added and fluorescence measured in the PerkinElmer Envision HTS Multilabel Reader. The raw data are imported into and analyzed with the Boehringer Ingelheim proprietary software MegaLab (curve fitting based on the program PRISM, GraphPad Inc.).

Sequence of KRAS G12V Ba/F3 (P01116 whole entry G12V, canonical isoform): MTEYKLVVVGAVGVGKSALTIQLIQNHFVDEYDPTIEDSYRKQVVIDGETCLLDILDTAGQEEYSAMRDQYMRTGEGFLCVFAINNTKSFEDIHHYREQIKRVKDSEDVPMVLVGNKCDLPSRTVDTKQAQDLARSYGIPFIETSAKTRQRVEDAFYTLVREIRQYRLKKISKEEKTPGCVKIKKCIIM
T1 sequence (P01116 1-169 isoform P01116-2 G12C/C51S/C80L/C118S): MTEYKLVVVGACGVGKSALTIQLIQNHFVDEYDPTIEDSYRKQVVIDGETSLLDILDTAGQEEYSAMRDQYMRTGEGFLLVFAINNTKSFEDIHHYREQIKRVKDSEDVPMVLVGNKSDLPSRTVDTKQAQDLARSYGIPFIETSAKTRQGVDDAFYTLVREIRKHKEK

One may read the IC50 as the concentration at which inhibition is half-maximal. Regarding `C[C@H](Oc1cc(OCCO)nc(-c2noc3c2CCC[C@@]32CCCc3sc(N)c(C#N)c32)n1)[C@@H]1CCCN1C` [II-6], the 50% inhibitory concentration (IC50) came to 0.781 µM with LOVO cells and 0.001 µM on KRAS (G12C)::SOS1. Besides, on KRAS G12V Ba/F3, the GI50 stood at 0.007 µM.
The corresponding values for `C[C@H](Oc1cc(Oc2nccs2)nc(-c2onc3c2CCC[C@@]32CCCc3sc(N)c(C#N)c32)n1)[C@@H]1CCCN1C` [Example I-1] are 0.054 µM, 0.001 µM and 0.003 µM.
On the same counts, the results for `C[C@H](Oc1cc(Oc2nccs2)nc(-c2noc3c2CCC[C@@]32CCCc3sc(N)c(C#N)c32)n1)[C@@H]1CCCN1C` [II-2] are 0.053 µM, 0.002 µM and 0.004 µM.
The corresponding values for `C[C@H](Oc1cc(Nc2ncccn2)nc(-c2noc3c2CCC[C@@]32CCCc3sc(N)c(C#N)c32)n1)[C@@H]1CCCN1C` [II-17] are 0.297 µM, 0.002 µM and 0.01 µM.
Turning to `C[C@H](Oc1cc(Oc2cnccn2)nc(-c2noc3c2CCC[C@@]32CCCc3sc(N)c(C#N)c32)n1)[C@@H]1CCCN1C` [II-7], the concentration for half-maximal inhibition (IC50) is 0.015 µM in the assay on LOVO cells and 0.002 µM at KRAS (G12C)::SOS1. On KRAS G12V Ba/F3, the GI50 came out at 0.003 µM.
The corresponding values for `C[C@H](Oc1cc(O[C@H]2CNC(C)(C)C2)nc(-c2noc3c2CCC[C@@]32CCCc3sc(N)c(C#N)c32)n1)[C@@H]1CCCN1C` (single isomer, unassigned) [II-8] are 0.501 µM, 0.002 µM and 0.869 µM.
The corresponding values for `C[C@H](Oc1cc(N[C@H]2CCOC2)nc(-c2onc3c2CCC[C@@]32CCCc3sc(N)c(C#N)c32)n1)[C@@H]1CCCN1C` [Example I-4] are 0.575 µM, 0.003 µM and 0.046 µM.
In the case of `C[C@H](Oc1cc(Nc2ccccn2)nc(-c2noc3c2CCC[C@@]32CCCc3sc(N)c(C#N)c32)n1)[C@@H]1CCCN1C` [II-16], at KRAS (G12C)::SOS1, the IC50 was 0.002 µM. For the same compound, the GI50 at KRAS G12V Ba/F3 is 0.011 µM.
Turning to `C[C@H](Oc1cc(O[C@H]2CCOC2)nc(-c2noc3c2CCC[C@@]32CCCc3sc(N)c(C#N)c32)n1)[C@@H]1CCCN1C` [II-4], the IC50 with LOVO cells was found to be 0.093 µM; on KRAS (G12C)::SOS1, 0.002 µM. Besides, the GI50 on KRAS G12V Ba/F3 was found to be 0.006 µM.
Turning to `C[C@H](Oc1cc(O[C@@H]2CNC[C@@H]2F)nc(-c2noc3c2CCC[C@@]32CCCc3sc(N)c(C#N)c32)n1)[C@@H]1CCCN1C` [II-29], the half-maximal inhibitory concentration (IC50) was determined as 0.216 µM in the assay on LOVO cells and 0.002 µM at KRAS (G12C)::SOS1. At KRAS G12V Ba/F3, the GI50 came to 0.065 µM.
Turning to `C[C@H](Oc1cc(Nc2nccs2)nc(-c2noc3c2CCC[C@@]32CCCc3sc(N)c(C#N)c32)n1)[C@@H]1CCCN1C` [II-12], the IC50 came to 1.13 µM with LOVO cells and 0.004 µM on KRAS (G12C)::SOS1. For the same compound, at KRAS G12V Ba/F3, the GI50 was 0.011 µM.
On the same counts, the results for `C[C@H](Oc1cc(O[C@@H]2CNC2(C)C)nc(-c2noc3c2CCC[C@@]32CCCc3sc(N)c(C#N)c32)n1)[C@@H]1CCCN1C` [II-9] are 0.099 µM, 0.002 µM and 0.161 µM.
The corresponding values for `CO[C@@H]1C[C@@H]([C@H](C)Oc2cc(O[C@@H]3CNC3(C)C)nc(-c3noc4c3CCC[C@@]43CCCc4sc(N)c(C#N)c43)n2)N(C)C1` [II-30] are 0.13 µM, 0.001 µM and 0.297 µM.
Consider `C[C@H](Oc1cc(Nc2cccnn2)nc(-c2noc3c2CCC[C@@]32CCCc3sc(N)c(C#N)c32)n1)[C@@H]1CCCN1C` [II-18], for which the IC50 was found to be 1.12 µM in the assay with LOVO cells and 0.002 µM at KRAS (G12C)::SOS1. Moreover, the GI50 at KRAS G12V Ba/F3 was 0.011 µM.
The corresponding values for `C[C@H](Oc1cc(Oc2cncnc2)nc(-c2noc3c2CCC[C@@]32CCCc3sc(N)c(C#N)c32)n1)[C@@H]1CCCN1C` [II-1] are 0.433 µM, 0.001 µM and 0.004 µM.
On the same counts, the results for `C[C@H](Oc1cc(OCC2(N(C)C)COC2)nc(-c2noc3c2CCC[C@@]32CCCc3sc(N)c(C#N)c32)n1)[C@@H]1CCCN1C` [II-22] are 0.039 µM, 0.002 µM and 0.035 µM.
On the same counts, the results for `C[C@H](Oc1cc(O[C@H]2CN(C)C(C)(C)C2)nc(-c2noc3c2CCC[C@@]32CCCc3sc(N)c(C#N)c32)n1)[C@@H]1CCCN1C` [II-19] are 0.344 µM, 0.004 µM and 0.151 µM.
Regarding `C[C@H](Oc1cc(O[C@@H]2CNC2(C)C)nc(-c2noc3c2CCC[C@@]32CCCc3sc(N)c(C#N)c32)n1)[C@@H]1C[C@@H](F)CN1C` [II-31], the 50% inhibitory concentration (IC50) in the assay on LOVO cells turned out to be 0.202 µM; at KRAS (G12C)::SOS1 it was 0.001 µM. Besides, the GI50 at KRAS G12V Ba/F3 amounted to 0.23 µM.
The corresponding values for `COc1c(OCC2(N(C)C)COC2)nc(-c2noc3c2CCC[C@@]32CCCc3sc(N)c(C#N)c32)nc1O[C@@H](C)[C@@H]1CCCN1C` [II-25] are 0.035 µM, 0.002 µM and 0.137 µM.
On the same counts, the results for `C[C@H](Oc1cc(N(C)C)nc(-c2noc3c2CCC[C@@]32CCCc3sc(N)c(C#N)c32)n1)[C@@H]1CCCN1C` [II-10] are 4.08 µM, 0.002 µM and 0.043 µM.
On the same counts, the results for `C[C@H](Oc1cc(Nc2cnccn2)nc(-c2noc3c2CCC[C@@]32CCCc3sc(N)c(C#N)c32)n1)[C@@H]1CCCN1C` [II-14] are 0.96 µM, 0.003 µM and 0.007 µM.
For the compound `COC[C@H](C)Nc1cc(O[C@@H](C)[C@@H]2CCCN2C)nc(-c2onc3c2CCC[C@@]32CCCc3sc(N)c(C#N)c32)n1` [Example I-5], the IC50 on KRAS (G12C)::SOS1 is 0.005 µM. Besides, the GI50 on KRAS G12V Ba/F3 was found to be 0.067 µM.
